Data: ChEMBL document CHEMBL3832053, “DailyMed|setid=94de983f-549b-42ed-9f40-b022aa3bef0f | TRANDOLAPRIL- trandolapril tablet|Carilion Materials Management”
“And” between values parts separate entries of the source, which are not always exact repeats. Equal entries are not always repeated.

Test system: Homo sapiens
Assay: Pharmacokinetic parameters for Trandolapril or its active metabolite of Trandolaprilat, after oral or intravenous (IV) administration of Trandolapril.
Details: in vivo; for Total CL: iv

Structure (SMILES)	Total CL [L/h]	Excretion (po)	F (po) [%]	Protein binding (po)	t1/2 ss (po) [h]	CL renal (po) [L/h]	t1/2 (po) [h]
C[C@H](N[C@@H](CCc1ccccc1)C(=O)O)C(=O)N1[C@H](C(=O)O)C[C@H]2CCCC[C@@H]21 [TRANDOLAPRILAT]	7	66% and 33%	70	94% and 65%	22.5	–	–
CCOC(=O)[C@H](CCc1ccccc1)N[C@@H](C)C(=O)N1[C@H](C(=O)O)C[C@H]2CCCC[C@@H]21 [TRANDOLAPRIL]	52	–	–	–	–	1 to 4	6
